{
  "source": "patent US20240374587A1",
  "about": "“MEDICINE FOR PREVENTION AND TREATMENT OF DISEASES LINKED TO ANTI-OBESITY ACTIVITY” (Shionogi & Co., Ltd., priority 2021, published 2024)",
  "molecular_target": "human MGAT2 (Homo sapiens (Human), UniProt Q3SYC2)",
  "sequence (Q3SYC2 whole entry)": "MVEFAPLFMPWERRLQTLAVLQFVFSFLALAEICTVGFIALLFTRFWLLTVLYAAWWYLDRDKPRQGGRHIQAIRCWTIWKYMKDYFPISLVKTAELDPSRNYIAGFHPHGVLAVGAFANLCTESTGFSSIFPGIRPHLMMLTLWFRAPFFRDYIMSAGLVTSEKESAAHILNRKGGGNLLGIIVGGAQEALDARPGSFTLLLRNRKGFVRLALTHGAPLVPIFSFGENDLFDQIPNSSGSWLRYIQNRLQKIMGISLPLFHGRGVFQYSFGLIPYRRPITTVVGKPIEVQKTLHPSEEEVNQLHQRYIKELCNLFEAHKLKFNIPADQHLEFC",
  "test": "Measurement of human MGAT2 inhibitory activity",
  "format": "biochemical",
  "conditions": "concentration exhibiting 50% enzyme inhibition",
  "description": "Solutions of the compounds of the present invention in DMSO were each aliquoted into 0.2·μL portions in a 384-well polystyrene microplate produced by Corning Incorporated, and 5 μL of an enzyme solution prepared with an assay buffer (100 mmol/L phosphate buffer (pH 7.4) containing 2 mmol/L DTT) and 5 μL of a substrate solution (100 mmol/L phosphate buffer (pH 7.4), 30 μmol/L 2-Oleoylglycerol, 10 μmol/L Oleoyl-CoA) were added thereto, and the resultant was stirred and centrifuged, and incubated in a moist chamber at room temperature for 1 hour. After enzymatic reaction, 50 μL of a quenching solution (containing 0.2 μmol/L Diolein-d5, 0.4% formic acid, and 50% isopropanol) containing Internal Standard (IS) was added to terminate the reaction, and the resultant was sealed in a plate produced by Shimadzu GLC Ltd., and then stirred and centrifuged, and measurement was performed by using an electrospray ionization method with a RapidFire360 and Agilent 6550 Q-TOF mass spectrometer. Diolein as a reaction product (P) of 2-Oleoylglycerol as the substrate and an ammonium adduct ion of the IS were detected, and the peak intensity ratio, P/IS, was calculated from the peak heights to evaluate the inhibitory activity. Inhibitory activities with/without addition of enzyme were defined as Control (+)/Control (−), respectively, and the respective % inhibitions were defined as 0% inhibition and 100% inhibition. The inhibitory activity was calculated from the formula below with TIBCO Spotfire (produced by TIBCO Software Inc.) with the peak intensity ratio, P/IS, at the time of addition of the compound of the present invention being as Sample: […]",
  "data": [
    {"smiles": "CS(=O)(=O)CC(=O)Nc1c2c(nn1CCC1CC1)C[C@]1(CCc3cc(OCC(F)(F)F)ccc31)NC2=O", "note": "[Compound I-008]", "values": [
      {"measurement": "IC50", "value": 2.78, "unit": "nM"}
    ]},
    {"smiles": "CS(=O)(=O)CC(=O)Nc1c2c(nn1-c1ccccn1)C[C@]1(CCc3cc(OCCCC(F)(F)F)ccc31)NC2=O", "note": "[Compound I-023]", "values": [
      {"measurement": "IC50", "value": 6.5, "unit": "nM"}
    ]},
    {"smiles": "CS(=O)(=O)CC(=O)Nc1c2c(nn1-c1ccccc1)C[C@]1(CCc3cc(OCCCC(F)(F)F)ccc31)NC2=O", "note": "[Compound I-034]", "values": [
      {"measurement": "IC50", "value": 18, "unit": "nM"}
    ]},
    {"smiles": "CS(=O)(=O)CC(=O)Nc1c2c(nn1-c1ccc(C#N)cn1)C[C@]1(CCc3cc(OCC(F)(F)F)ccc31)NC2=O", "note": "[Compound I-190]", "values": [
      {"measurement": "IC50", "value": 2.9, "unit": "nM"}
    ]},
    {"smiles": "CS(=O)(=O)CC(=O)Nc1c2c(nn1CCCC(F)(F)F)C[C@@]1(CCc3cc(OCC(F)(F)F)ccc31)NC2=O", "note": "[Compound I-212]", "values": [
      {"measurement": "IC50", "value": 6.9, "unit": "nM"}
    ]},
    {"smiles": "Cc1ccc(-n2nc3c(c2NC(=O)CS(C)(=O)=O)C(=O)N[C@@]2(CCc4cc(OCC(F)(F)F)ccc42)C3)nc1", "note": "[Compound I-236]", "values": [
      {"measurement": "IC50", "value": 2.8, "unit": "nM"}
    ]},
    {"smiles": "CS(=O)(=O)CC(=O)Nc1c2c(nn1CCCOC(F)(F)F)C[C@]1(CCc3cc(OCC(F)(F)F)ccc31)NC2=O", "note": "[Compound I-253]", "values": [
      {"measurement": "IC50", "value": 1.4, "unit": "nM"}
    ]},
    {"smiles": "Cc1ccc(-n2nc3c(c2NC(=O)CS(C)(=O)=O)C(=O)N[C@@]2(CCOc4cc(OCC(F)(F)F)ccc42)C3)nc1", "note": "[Compound I-275]", "values": [
      {"measurement": "IC50", "value": 2, "unit": "nM"}
    ]},
    {"smiles": "CS(=O)(=O)CC(=O)Nc1c2c(nn1CCCOC(F)(F)F)C[C@@]1(CCc3cc(OCC(F)(F)F)cc(F)c31)NC2=O", "note": "[II-093]", "values": [
      {"measurement": "IC50", "value": 1.21, "unit": "nM"}
    ]},
    {"smiles": "Cc1ccc(-n2nc3c(c2NC(=O)CS(C)(=O)=O)C(=O)N[C@@]2(CCc4cc(OCCCC(F)(F)F)ccc42)C3)nn1", "note": "[II-103]", "values": [
      {"measurement": "IC50", "value": 1.61, "unit": "nM"}
    ]},
    {"smiles": "Cc1ccc(-n2nc3c(c2NC(=O)CS(C)(=O)=O)C(=O)N[C@@]2(CCOc4cc(OCC(C)(F)F)ccc42)C3)nc1", "note": "[II-151]", "values": [
      {"measurement": "IC50", "value": 2.05, "unit": "nM"}
    ]},
    {"smiles": "Cc1ccc(-n2nc3c(c2NC(=O)CS(C)(=O)=O)C(=O)N[C@@]2(CCOc4cc(C5CC5)ccc42)C3)nc1", "note": "[II-168]", "values": [
      {"measurement": "IC50", "value": 1.88, "unit": "nM"}
    ]},
    {"smiles": "CS(=O)(=O)CC(=O)Nc1c2c(nn1-c1ccc(C(F)F)cc1)C[C@]1(CCc3cc(OCC(F)(F)F)ccc31)NC2=O", "note": "[II-174]", "values": [
      {"measurement": "IC50", "value": 2.16, "unit": "nM"}
    ]},
    {"smiles": "Cc1ccc(-n2nc3c(c2NC(=O)CS(C)(=O)=O)C(=O)N[C@@]2(CCOc4cc(F)cc(F)c42)C3)nc1", "note": "[II-203]", "values": [
      {"measurement": "IC50", "value": 2.98, "unit": "nM"}
    ]},
    {"smiles": "CS(=O)(=O)CC(=O)Nc1c2c(nn1-c1ccc(F)c(F)c1)C[C@]1(CCOc3cc(CCC(F)(F)F)ccc31)NC2=O", "note": "[II-225]", "values": [
      {"measurement": "IC50", "value": 1.14, "unit": "nM"}
    ]},
    {"smiles": "Cc1cc(-n2nc3c(c2NC(=O)CS(C)(=O)=O)C(=O)N[C@@]2(CCOc4cc(OCCCC(F)(F)F)ccc42)C3)no1", "note": "[II-233]", "values": [
      {"measurement": "IC50", "value": 0.22, "unit": "nM"}
    ]},
    {"smiles": "CS(=O)(=O)CC(=O)Nc1c2c(nn1-c1ccc(F)cn1)C[C@]1(CCOc3cc(OCC(F)(F)F)ccc31)NC2=O", "note": "[II-295]", "values": [
      {"measurement": "IC50", "value": "< 1", "unit": "nM"}
    ]},
    {"smiles": "Cc1ccc(-c2nn3c(c2NC(=O)CS(C)(=O)=O)C(=O)N[C@@]2(CCc4cc(OCC(F)(F)F)ccc42)C3)nc1", "note": "[I′-006]", "values": [
      {"measurement": "IC50", "value": 2.25, "unit": "nM"}
    ]},
    {"smiles": "Cc1ccc(-c2nn3c(c2NC(=O)CS(C)(=O)=O)C(=O)N[C@@]2(CCc4cc(OCC(F)(F)F)ccc42)C3)cc1", "note": "[I′-020]", "values": [
      {"measurement": "IC50", "value": 1.97, "unit": "nM"}
    ]},
    {"smiles": "CS(=O)(=O)CC(=O)Nc1c(-c2ccc(F)c(F)c2)nn2c1C(=O)N[C@@]1(CCc3cc(OCC(F)(F)F)ccc31)C2", "note": "[I′-033]", "values": [
      {"measurement": "IC50", "value": 0.73, "unit": "nM"}
    ]},
    {"smiles": "CS(=O)(=O)CC(=O)Nc1c(CCC2CC2)nn2c1C(=O)N[C@@]1(CCc3cc(OCC(F)(F)F)ccc31)C2", "note": "[I′-046]", "values": [
      {"measurement": "IC50", "value": 1.17, "unit": "nM"}
    ]},
    {"smiles": "CS(=O)(=O)CC(=O)Nc1c(CCC(F)(F)F)nn2c1C(=O)N[C@@]1(CCc3cc(OCC(F)(F)F)ccc31)C2", "note": "[I′-058]", "values": [
      {"measurement": "IC50", "value": 9.78, "unit": "nM"}
    ]},
    {"smiles": "CS(=O)(=O)CC(=O)Nc1c(-c2ccc(F)cc2)nn2c1C(=O)N[C@@]1(CCOc3cc(OCC(F)(F)F)ccc31)C2", "note": "[I′-066]", "values": [
      {"measurement": "IC50", "value": 0.85, "unit": "nM"}
    ]},
    {"smiles": "CS(=O)(=O)CC(=O)Nc1c(-c2ccc(F)cc2)nn2c1C(=O)N[C@]1(CCc3cc(OCC(F)(F)F)ccc31)C2", "note": "[I′-079]", "values": [
      {"measurement": "IC50", "value": 1.13, "unit": "nM"}
    ]},
    {"smiles": "CCS(=O)(=O)CC(=O)Nc1c(-c2ccc(F)cn2)nn2c1C(=O)N[C@@]1(CCc3cc(F)cc(F)c31)C2", "note": "[I′-123]", "values": [
      {"measurement": "IC50", "value": 8.48, "unit": "nM"}
    ]},
    {"smiles": "Cc1ccc(-c2nn3c(c2NC(=O)CS(C)(=O)=O)C(=O)N[C@@]2(CCOc4cc(F)cc(F)c42)C3)nc1", "note": "[I′-124]", "values": [
      {"measurement": "IC50", "value": 6.5, "unit": "nM"}
    ]}
  ]
}
